Assay: Stability of NO2-OA/β-cyclodextrin inclusion complex resuspended in water
Type: physicochemical
Experimental: An important consideration when working with nitroalkene fatty acids is their high sensitivity to water or humidity. […] Stability was compared with the total amount added to the aqueous solution.
These stability assays were performed at room temperature and data was similar between the two tested concentrations of 0.31 mg/ml and 1.95 mg/ml. […] A new equilibrium is rapidly achieved and the sample is stable after this initial decay.

- time to complete decomposition of NO2-OA in water (NO2-OA added to water without cyclodextrin): ≤ 4 h
- time to loss of 10-NO2-OA in solution (same molar amount of 10-NO2-OA added to water): ≤ 4 hrs
Compound: CCCCCCCCC(=CCCCCCCCC(=O)O)[N+](=O)[O-] [NO2-OA, 10-nitro-octadec-9-enoic acid]

— patent US20230108270A1, “STABILIZATION OF COMPOUNDS AS CYCLODEXTRIN COMPLEXES” (University of Pittsburgh - Of the Commonwealth System of …, priority 2020, published 2023)
